Data from patent US4172829A, “2,9-Disubstituted adenine derivatives and their use as non-adrenergic bronchodilators” (Bristol-Myers Company, priority 1978, dated 1979).
Values after ≈ are worked out from the molar mass of the structure shown.

Key:
platelet aggregation = conditions: Chem Pharm. Bull., 25(7), 1811-1821 (1977); cited from earlier work
[1] = system: Tracheal chains of guinea pig; experiment: In vitro bronchodilator activity, isolated tracheal chain (ITC); type: cell-based; conditions: Cavia porcellus, relaxation 50% of the maximum response to 0.1 mcg./ml. of isoproterenol
Experimental: Tracheal chains of guinea pig were prepared by the method described by A. Akcasu in Arch. Int. Pharmacodyn. Ther., 122, 201 (1959). The response to each test compound was recorded by the Magnus method and expressed as a percentage of the maximum response obtained with 0.1 mcg./ml. of isoproterenol prior to each experiment.

[2] = system: intratracheal pressure (ITP) of guinea pig; experiment: In vivo bronchodilator activity, intratracheal pressure test (ITP); conditions: Cavia porcellus, 50% decrease in intratracheal pressure
Experimental: (§1) The trachea of anesthetized guinea pig was cannulated and the ITP recorded on a polygraph under artificial ventilation. Arterial blood pressure (ABP; measure of hypotensive activity) was also measured during the experiment. Data was obtained for both intravenous and intraduodenal administration.

[3] = system: Arterial blood pressure (ABP); experiment: In vivo hypotensive activity, arterial blood pressure (ABP); design: species or system guinea pig; conditions: arterial blood pressure lowering, ED20, reduces ABP by 20%
Experimental: as §1, with “Pharmac., 21, 379 (1969). The” for “The”

[4] = Separation of bronchodilator and cardiovascular effects (ABP/ITP); conditions: guinea pig, in vivo, ratio of hypotensive ED20 / bronchodilating ED50
Experimental: To assess the separation of desirable bronchodilator activity from undesirable cardiovascular (hypotensive) effect in the test compounds, the ratio of hypotensive ED20 /bronchodilating ED50 was calculated and indicated in Table 1.

bronchial constriction = conditions: prior art; bronchial asthma; cited from earlier work
[5] = known disadvantages, prior art; cited from earlier work
[6] = prior art; cited from earlier work

For `Nc1nc(SC2CCCC2)nc2c1ncn2C1CCCC1`, the “inhibition of platelet aggregation (in words)” value (platelet aggregation) is listed as “slightly effective”.

Work on `CCOc1nc(N)c2ncn(C3CCCCC3)c2n1` [C2 H5 O / drawing 30, 2-Ethoxy-9-cyclohexyl-9H-adenine] yielded an EC50 [1] of 0.18 µg/mL (≈ 0.689 µM), an ED50 ([2]; intravenous) of 0.37 mg/kg and an ED20 ([3]; intravenous) of 2.5 mg/kg. The selectivity ratio ([4]; intravenous) was 6.8.

`CCOc1nc(N)c2ncn(C3C=CCCC3)c2n1` (stereo not shown) [C2 H5 O / drawing 31, 9-(2-Cyclohexenyl)-2-ethoxy-9H-adenine] gave an EC50 [1] of 0.088 µg/mL (≈ 0.339 µM), an ED50 ([2]; intraduodenal) of 0.62 mg/kg and an ED50 ([2]; intravenous) of 0.33 mg/kg. For the same molecule, the ED20 ([3]; intraduodenal) was 12 mg/kg, the ED20 ([3]; intravenous) was 4.0 mg/kg and the selectivity ratio ([4]; intraduodenal) was 19. For the same molecule, the selectivity ratio ([4]; intravenous) was 12.

`Nc1nc(Cl)nc2c1ncn2C1C=CCCC1` (stereo not shown) [Cl / drawing 31, 2-Chloro-9-(2-cyclohexenyl)-9H-adenine] gave an EC50 [1] of 0.12 µg/mL (≈ 0.481 µM), an ED50 ([2]; intravenous) of 0.15 mg/kg and an ED20 ([3]; intravenous) of 2.5 mg/kg. For the same molecule, the selectivity ratio ([4]; intravenous) was 17.

For `Cn1c(=O)c2[nH]cnc2n(C)c1=O` [Theophylline], the “bronchodilator activity (in words)” value (bronchial constriction) is given as “potent and useful non-adrenergic bronchodilator”.

For `Cn1c(=O)c2[nH]cnc2n(C)c1=O` [aminophylline], the EC50 [1] is given as 16.6 µg/mL (≈ 92.1 µM), the “bronchodilator activity (in words)” value (bronchial constriction) is given as “effective bronchodilator when given orally” and the “side effects (in words)” value [5] is given as “gastric irritation and cardiovascular and central nervous system side effects”. The “solubility (in words)” value [6] was “readily soluble”.

In the case of `CC(C)COc1nc(N)c2ncn(C3CCCCC3)c2n1` [isO-C4 H9 O / drawing 30, 2-Isobutoxy-9-cyclohexyl-9H-adenine], the EC50 [1] is reported as 0.31 µg/mL (≈ 1.07 µM), the ED50 ([2]; intravenous) is reported as > 3 mg/kg and the ED20 ([3]; intravenous) is reported as > 3 mg/kg.

In the case of `CC(C)COc1nc(N)c2ncn(C3C=CCCC3)c2n1` (stereo not shown) [iso-C4 H9 O / drawing 31, 9-(2-Cyclohexenyl)-2-isobutoxy-9H-adenine], the EC50 [1] is reported as 0.41 µg/mL (≈ 1.43 µM), the ED50 ([2]; intravenous) is reported as > 3 mg/kg and the ED20 ([3]; intravenous) is reported as 2.4 mg/kg.

`CCCOc1nc(N)c2ncn(C3CCCCC3)c2n1` [n-C3 H7 O / drawing 30, 9-Cyclohexyl-2-n-propoxy-9H-adenine] showed an EC50 [1] of 0.026 µg/mL (≈ 0.0944 µM), an ED50 ([2]; intraduodenal) of 1.2 mg/kg and an ED50 ([2]; intravenous) of 0.37 mg/kg. It also gave an ED20 ([3]; intraduodenal) of 18 mg/kg, an ED20 ([3]; intravenous) of 4.4 mg/kg and a selectivity ratio ([4]; intraduodenal) of 15. For the same molecule, the selectivity ratio ([4]; intravenous) was 12.

With `CCCOc1nc(N)c2ncn(C3C=CCCC3)c2n1` (stereo not shown) [n-C3 H7 O / drawing 31, 9-(2-Cyclohexenyl)-2-n-propoxy-9H-adenine] the EC50 [1] was 0.027 µg/mL (≈ 0.0988 µM), the ED50 ([2]; intraduodenal) was 1.2 mg/kg and the ED50 ([2]; intravenous) was 0.34 mg/kg. It also gave an ED20 ([3]; intraduodenal) of 2.4 mg/kg, an ED20 ([3]; intravenous) of 2.0 mg/kg and a selectivity ratio ([4]; intraduodenal) of 2. It also gave a selectivity ratio ([4]; intravenous) of 5.9.

`CCCCOc1nc(N)c2ncn(C3CCCCC3)c2n1` [n-C4 H9 O / drawing 30, 2-n-Butoxy-9-cyclohexyl-9H-adenine] showed an EC50 [1] of 0.025 µg/mL (≈ 0.0864 µM), an ED50 ([2]; intraduodenal) of 1.4 mg/kg and an ED50 ([2]; intravenous) of 0.003 mg/kg. It also gave an ED20 ([3]; intraduodenal) of 8.3 mg/kg, an ED20 ([3]; intravenous) of 4.4 mg/kg and a selectivity ratio ([4]; intraduodenal) of 5.9. For the same molecule, the selectivity ratio ([4]; intravenous) was 1470.

In the case of `CCCCOc1nc(N)c2ncn(C3C=CCCC3)c2n1` (stereo not shown) [n-C4 H9 O / drawing 31, 9-(2-Cyclohexenyl)-2-n-butoxy-9H-adenine], the EC50 [1] is reported as 0.045 µg/mL (≈ 0.157 µM), the ED50 ([2]; intravenous) is reported as 0.65 mg/kg and the ED20 ([3]; intravenous) is reported as > 3 mg/kg. For the same molecule, the selectivity ratio ([4]; intravenous) was > 4.8.

With `CCCCCOc1nc(N)c2ncn(C3CCCCC3)c2n1` [n-C5 H11 O / drawing 30, 2-n-Pentyloxy-9-cyclohexyl-9H-adenine] the EC50 [1] was 1.8 µg/mL (≈ 5.93 µM), the ED50 ([2]; intravenous) was > 3 mg/kg and the ED20 ([3]; intravenous) was > 3 mg/kg.

In the case of `CCCCCOc1nc(N)c2ncn(C3C=CCCC3)c2n1` (stereo not shown) [n-C5 H11 O / drawing 31, 9-(2-Cyclohexenyl)-2-n-pentyloxy-9H-adenine], the EC50 [1] is reported as 0.59 µg/mL (≈ 1.96 µM), the ED50 ([2]; intravenous) is reported as > 3 mg/kg and the ED20 ([3]; intravenous) is reported as > 3 mg/kg.

In the case of `CCCCCCOc1nc(N)c2ncn(C3CCCCC3)c2n1` [n-C6 H13 O / drawing 30, 2-n-Hexyloxy-9-cyclohexyl-9H-adenine], the EC50 [1] is reported as 1.4 µg/mL (≈ 4.41 µM), the ED50 ([2]; intravenous) is reported as > 3 mg/kg and the ED20 ([3]; intravenous) is reported as > 3 mg/kg.

For `CCCCCCOc1nc(N)c2ncn(C3C=CCCC3)c2n1` (stereo not shown) [n-C6 H13 O / drawing 31, 9-(2-Cyclohexenyl)-2-n-hexyloxy-9H-adenine], the EC50 [1] was > 3 µg/mL, the ED50 ([2]; intravenous) was > 3 mg/kg and the ED20 ([3]; intravenous) was 2.7 mg/kg.
